# According to patent US6723703B2, “Therapeutic use of aerosolized S-nitrosoglutathione in cystic fibrosis” (Duke University, priority 2000, dated 2004):
# Entries after “also recorded” stand apart in the source; their conditions may differ.
# Assays:
# [1] = tested on: human airway smooth muscle preparations; conditions: read-out: IC50 in relaxing human airway smooth muscle preparations; cited from earlier work
# [2] = tested on: patients with CF; experiment: Double-blind, placebo-controlled nebulized GSNO study in patients with CF; type: in vivo, human
# Description: FIG. 3. […] In a double-blind, placebo-controlled study, patients with CF received GSNO in 10 mM phosphate buffered saline (PBS) (n=9) or 10 mM PBS alone (n=11) by nebulizer. The two groups were matched with respect to age, vital signs, oxygen saturation, vital capacity, FEV1, and FEF25-75(p=7). Change in oxygen saturation from pretreatment baseline is recorded as a function of time. Results are shown in FIG. 3 where the continuous line represents the GSNO group and the line composed of dashes represents the PBS alone group. […] FIG. 4. Inhaled S-nitrosoglutathione cases increased expired nitric oxide (NO) concentration in CF. Data presented represent the two groups described in FIG. 3, but with respect to expired nitric oxide concentration (measured off-line with chemiluminescence in accordance with American Thoracic Society guidelines). Results are shown in FIG. 4 where the continuous line represents the GSNO group and the line composed of dashes represents the PBS alone group. […] Note that the change at 30 minutes is less pronounced than at 5 minutes, though improvement in oxygenation is as dramatic at 30 minutes as at 5 minutes. […] These S-nitrosylation reactions may be critically important to smooth muscle relaxation, antimicrobial effects and modification of ion channel function. FIGS. 5A, 5B, 5C, 5D, 5E and 5F. Inhaled S-nitrosoglutathione is well tolerated in CF patients.
# [3] = cited from earlier work
# [4] = tested on: ubiquitin proteosome pathway; experiment: Inhibition of the ubiquitin proteosome pathway (preliminary evidence); conditions: stabilizes expression of hypoxy inducible factor 1
# Text: Cystic fibrosis is caused by mutations in a membrane-associated chloride channel, the cystic fibrosis transmembrane regulatory protein (CFTR). The most common mutation, accounting for 70% of alleles, is a 3 base pair (single amino acid) deletion at the 508 position on the first ATP binding domain, the (ΔF508) mutation. This is referred to as a class II mutation in that intact and potentially functional protein is degraded in the endoplasm reticulum because of a small folding error. It is known that his degradation can be bypassed in vitro by hypothermia and by treatment with compounds,such as glycerol and phenylbutyrate. These treatments result in functional expression of (ΔF508) CFTR on the cell surface. It has recently been proposed that CFTR degradation in the endoplasmic reticulum (ER) is mediated by the ubiquitin-proteasome system.
# [5] = tested on: human CFTR protein bearing the ΔF508 mutation; experiment: Western blot of CFTR in CFPAC-1 cells treated with GSNO; type: cell-based
# Description: FIG. 1. […] Human pancreatic adenocarcinoma cells from a patient homozygous for ΔF508 (CFPAC-1) were grown to confluence and treated with medium alone (control) or 500 nM, 1 μM, 5 μM, 10 μM or 100 mM GSNO for 6 hours. The cells were harvested, lysed, resuspended in NP40 buffer and underwent Western Blot analysis with anti-CFTR antibody. […] Increased expression of the immature non-glycosylated protein (140 kDa) reflects decreased degradation of the immature protein in the endoplasma retimulum The appearance of a band at 180 kDa (mature protein) reflects maturation of the protein in the endoplasmic reticulum, an expression of a form capable of being expressed on the cell surface representative of three experiments. The full maturing of the protein accommodates for the ΔF508 mutation.
# [6] = cells homozygous to the ΔF508 mutation, 100 μM GSNO
structure (smiles),measurement,setting,value
"N[C@@H](CCC(=O)N[C@@H](CSN=O)C(=O)NCC(=O)O)C(=O)O [GSNO, S-nitrosoglutathione]",IC50,[1],~10 µM
same,"tolerability (vital signs, lung function, systemic effects)","[2]; CF patients, inhaled 0.05 ml/kg of 10 mM GSNO",no acute change in vital signs or lung function was observed; also recorded: well tolerated in CF and has no adverse systemic affects
same,change in oxygen saturation from pretreatment baseline,"[2]; inhalation of 0.05 ml/kg of 10 mM GSNO by nebulizer vs PBS alone, p<0.001 by ANOVA",greater improvement in oxygen saturation than those in the PBS group; also recorded: improved oxygenation
same,stability at acid pH,[3],stable at acid pH
same,inhibition of ubiquitin proteosome pathway,[4],inhibits the ubiquitin proteosome pathway
same,"stabilization and maturation of ΔF508 CFTR protein (Western blot, 140/160/180 kDa bands)","[5]; CFPAC-1 cells, 500 nM, 1 μM, 5 μM, 10 μM or 100 mM GSNO for 6 hours",stabilizes and allows maturation of human CFTR protein bearing the ΔF508 mutation
same,expression of CFTR,[5]; [6],increases the expression of CFTR
same,maturation of CFTR,[5]; [6],increases the maturation of CFTR
